US4656247A, “Effective hormonal peptides: D-3-QA1 6-LHRH” (Board of Regents, The University of Texas System, priority 1985, dated 1987)

Columns and labels:
21 day old female rats = assay: In vivo assay in rats for release of LH and FSH; design: species or system rat; details: for Serum FFSH ng/ml ± SEM / Serum LH ng/ml ± SEM: Table VI, sampling time not given; for LH ng/ml Serum ± SEM: Table VII; for LH ± SEM ng/ml serum / FSH ± SEM ng/ml serum: Table XI, mean 5-6
Protocol: In vivo rat assay performed by a modification of the method of Bowers, C. Y. et al. Endocrinology, 106, 674 (1980). 21 day old female rats were injected sc with saline or peptide. Blood samples for the RIAs of LH and FSH were collected at +15, +60, +120, or +180 minutes. (Table VI-XI).

men = details: chronic administration; cited from earlier work
[1] = tested on: advanced prostatic carcinoma; details: subcutaneous, daily; cited from earlier work
[2] = Peptides tested biologically (summary statement); details: when tested biologically
[3] = tested on: pituitary cells from 21 day old rats; assay: In vitro pituitary incubate assay (release of LH and FSH); type: cell-based, rat
Protocol: The data in Tables IV and V are from the in vitro assay of the peptides with the pituitary incubate. This assay measures the release of LH and FSH in an in vitro system with pituitary cells from 21 day old rats. See, Bowers, C. Y. et al. on the inhibitory effects of leutinizing hormone releasing hormone analogs. Endocrinology, 106: 674 (1980).

[4] = 150 ng sc, first column (+ 2 hrs as in upper part)
[5] = 150 ng sc, second column (+3 hrs as in upper part)

Molecule: LHRH: leutinizing hormone releasing hormone, the peptide hormone which exists naturally in the hypothalamus
- Serum FFSH ng/ml ± SEM (21 day old female rats; 15 ng/rat sc): 475 ± 43 ng/mL
- Serum LH ng/ml ± SEM (21 day old female rats; 15 ng/rat sc): 1.3 ± 0.2 ng/mL
- Serum FFSH ng/ml ± SEM (21 day old female rats; 50 ng/rat sc): 572 ± 68 ng/mL
- Serum LH ng/ml ± SEM (21 day old female rats; 50 ng/rat sc): 3.2 ± 0.3 ng/mL
- Serum FFSH ng/ml ± SEM (21 day old female rats; 150 ng/rat sc): 839 ± 73 ng/mL
- Serum LH ng/ml ± SEM (21 day old female rats; 150 ng/rat sc): 12 ± 3 ng/mL
- LH ng/ml Serum ± SEM (21 day old female rats; ± 15 min): 49 ± 10 ng/mL
- LH ng/ml Serum ± SEM (21 day old female rats; ± 60 min): 5.5 ± 0.9 ng/mL
- LH ± SEM ng/ml serum (21 day old female rats; 150 ng sc, + 2 hrs): .18 ± 0.07 ng/ml serum
- LH ± SEM ng/ml serum (21 day old female rats; 150 ng sc, +3 hrs): 0.66 ± 0.46 ng/ml serum
- FSH ± SEM ng/ml serum (21 day old female rats; [4]): 337 ± 20 ng/ml serum
- FSH ± SEM ng/ml serum (21 day old female rats; [5]): 487 ± 72 ng/ml serum
- release of LH (21 day old female rats; at 15 ng): inactive

Molecule: CC(C)C[C@H](NC(=O)[C@@H](Cc1c[nH]c2ccccc12)NC(=O)[C@H](Cc1ccc(O)cc1)NC(=O)[C@H](CO)NC(=O)[C@H](Cc1c[nH]c2ccccc12)NC(=O)[C@H](Cc1c[nH]cn1)NC(=O)[C@@H]1CCC(=O)N1)C(=O)N[C@@H](CCCNC(=N)N)C(=O)N1CCC[C@H]1C(=O)NCC(N)=O [D-Trp^6 -LHRH, pyroGluHis-Trp-Ser-Tyr-D-Trp-Leu-Arg-Pro-Gly-NH2]
- effect on Leydig cell function and serum steroid levels (men): suppression of Leydig cell function and decreases in serum levels of testosterone, dihydrotestosterone and estradiol
- clinical effect in patients with more advanced prostatic disease [1]: pain from bone metastases was relieved
- clinical effect in patients with urinary obstruction [1]: noticeable clinical improvement
- LH ng/ml Serum ± SEM (21 day old female rats; 10 mg/rat sc, ± 60 min): 31 ± 6 ng/mL
- LH ng/ml Serum ± SEM (21 day old female rats; ± 15 min): 51 ± 10 ng/mL
- LH ng/ml Serum ± SEM (21 day old female rats; ± 60 min): 259 ± 34 ng/mL
- LH ± SEM ng/ml serum (21 day old female rats; 150 ng sc, + 2 hrs): 230 ± 41 ng/ml serum
- LH ± SEM ng/ml serum (21 day old female rats; 150 ng sc, +3 hrs): 117 ± 9 ng/ml serum
- FSH ± SEM ng/ml serum (21 day old female rats; [4]): 2332 ± 388 ng/ml serum
- FSH ± SEM ng/ml serum (21 day old female rats; [5]): 2065 ± 151 ng/ml serum

Molecule: CCNC(=O)[C@@H]1CCCN1C(=O)[C@H](CCCNC(=N)N)NC(=O)[C@H](CC(C)C)NC(=O)[C@@H](Cc1cccnc1)NC(=O)[C@H](Cc1ccc(O)cc1)NC(=O)[C@H](CO)NC(=O)[C@H](Cc1c[nH]c2ccccc12)NC(=O)[C@H](Cc1c[nH]cn1)NC(=O)[C@@H]1CCC(=O)N1 [Peptide 21436, pryoGlu-His-Trp-Ser-Tyr-D-3-Pal-Leu-Arg-Pro-NHC2 H5]
- LH ± SEM ng/ml serum (21 day old female rats; 150 ng sc, + 2 hrs): 237 ± 52 ng/ml serum
- LH ± SEM ng/ml serum (21 day old female rats; 150 ng sc, +3 hrs): 106 ± 13 ng/ml serum
- FSH ± SEM ng/ml serum (21 day old female rats; [4]): 2415 ± 361 ng/ml serum
- FSH ± SEM ng/ml serum (21 day old female rats; [5]): 2205 ± 298 ng/ml serum

Molecule: CCNC(=O)[C@@H]1CCCN1C(=O)[C@H](CCCNC(=N)N)NC(=O)[C@H](CC(C)C)NC(=O)[C@@H](Cc1c[nH]c2ccccc12)NC(=O)[C@H](Cc1ccc(O)cc1)NC(=O)[C@H](CO)NC(=O)[C@H](Cc1c[nH]c2ccccc12)NC(=O)[C@H](Cc1c[nH]cn1)NC(=O)[C@@H]1CCC(=O)N1 [D-Trp^6 Pro^9 Net-LHRH, pyroGluHis-Trp-Ser-Tyr-D-Trp-Leu-Arg-Pro-EA**]
- LH ng/ml Serum ± SEM (21 day old female rats; ± 15 min): 59 ± 10 ng/mL
- LH ng/ml Serum ± SEM (21 day old female rats; ± 60 min): 228 ± 41 ng/mL
- LH ± SEM ng/ml serum (21 day old female rats; 150 ng sc, + 2 hrs): 184 ± 29 ng/ml serum
- LH ± SEM ng/ml serum (21 day old female rats; 150 ng sc, +3 hrs): 103 ± 9 ng/ml serum
- FSH ± SEM ng/ml serum (21 day old female rats; [4]): 2260 ± 294 ng/ml serum
- FSH ± SEM ng/ml serum (21 day old female rats; [5]): 1763 ± 148 ng/ml serum

Molecule: CC(C)C[C@H](NC(=O)[C@@H](Cc1cccnc1)NC(=O)[C@H](Cc1ccc(O)cc1)NC(=O)[C@H](CO)NC(=O)[C@H](Cc1c[nH]c2ccccc12)NC(=O)[C@H](Cc1c[nH]cn1)NC(=O)[C@@H]1CCC(=O)N1)C(=O)N[C@@H](CCCNC(=N)N)C(=O)N1CCC[C@H]1C(=O)NCC(N)=O [D-Pal^6 -LHRH, pyroGlu-His-Trp-Ser-Tyr-D-3-Pal-Leu-Arg-Pro-GlyNH2]
- potency compared with LHRH [2]: significantly more potent than LHRH itself
- Serum LH ng/ml ± SEM (21 day old female rats; 5 ng/rat sc): 7 ± 1 ng/mL
- LH ± SEM ng/ml serum (21 day old female rats; 50 ng sc, + 2 hrs): 108 ± 17 ng/ml serum
- LH ± SEM ng/ml serum (21 day old female rats; 50 ng sc, +3 hrs): 20 ± 2.3 ng/ml serum
- FSH ± SEM ng/ml serum (21 day old female rats; 50 ng sc, first column (+ 2 hrs as in upper part)): 1727 ± 222 ng/ml serum
- FSH ± SEM ng/ml serum (21 day old female rats; 50 ng sc, second column (+3 hrs as in upper part)): 1312 ± 163 ng/ml serum
- LH ± SEM ng/ml serum (21 day old female rats; 150 ng sc, + 2 hrs): 144 ± 27 ng/ml serum
- LH ± SEM ng/ml serum (21 day old female rats; 150 ng sc, +3 hrs): 38 ± 6.3 ng/ml serum
- FSH ± SEM ng/ml serum (21 day old female rats; [4]): 2362 ± 293 ng/ml serum
- FSH ± SEM ng/ml serum (21 day old female rats; [5]): 1617 ± 143 ng/ml serum
- release of LH (21 day old female rats; dosage of 5 ng): significantly released LH
- LH released relative to LHRH, corrected for the level of LH before addition of the peptides (21 day old female rats; dosage of 50 ng): ~50 times
- activity for the release of FSH (D-Pal^6 vs D-Qal^6, words) ([3]; at 0.1 ng, Table IV): same essential equivalents
- activity for the release of LH (D-Pal^6 vs D-Qal^6, words) ([3]; at 0.1 ng, Table IV): essentially equivalent in activity
- potency compared with D-Trp^6 -LHRH, inferred via D-Qal^6 -LHRH ([3]; inference from Table IV and comparable assays): essentially equipotent
